Experimental data published in the supplement of paper PMC10307832.

Assays:
Assay in all cases: relative viability (nuclei count vs DMSO), 5 days (fraction); higher = more cells survive
EMC-BAC-2 = system: EMC-BAC-2
Summary of the method: (§1)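 Lung cancer cell lines were seeded in 1536-well plates and dosed by pin tool the next day, with either a single drug or a fixed anchor-drug dose combined with five library-drug doses (not always all listed) spaced in √10 steps. Five days later, one step fixed the cells and stained their nuclei (final 0.05% Triton X-100, 1% formaldehyde, 1 ug/ml Hoechst), and nuclei were counted on 4× images. Relative viability is the nuclei count in treated wells divided by the count in vehicle wells, and each value is the median of duplicate plates.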

EPLC-272H = system: EPLC-272H
Summary of the method: as §1

H3255 = system: H3255
Summary of the method: as §1

HOP-62 = system: HOP-62
Summary of the method: as §1

LCLC-97TM1 = system: LCLC-97TM1
Summary of the method: as §1

LXF-289 = system: LXF-289
Summary of the method: as §1

NCI-H1563 = system: NCI-H1563
Summary of the method: as §1

NCI-H1650 = system: NCI-H1650
Summary of the method: as §1

NCI-H1915 = system: NCI-H1915
Summary of the method: as §1

NCI-H1993 = system: NCI-H1993
Summary of the method: as §1

NCI-H2009 = system: NCI-H2009
Summary of the method: as §1

NCI-H2023 = system: NCI-H2023
Summary of the method: as §1

NCI-H2085 = system: NCI-H2085
Summary of the method: as §1

NCI-H2126 = system: NCI-H2126
Summary of the method: as §1

NCI-H2342 = system: NCI-H2342
Summary of the method: as §1

NCI-H2347 = system: NCI-H2347
Summary of the method: as §1

NCI-H322M = system: NCI-H322M
Summary of the method: as §1

NCI-H647 = system: NCI-H647
Summary of the method: as §1

NCI-H661 = system: NCI-H661
Summary of the method: as §1

NCI-H727 = system: NCI-H727
Summary of the method: as §1

PC-14 = system: PC-14
Summary of the method: as §1

SK-LU-1 = system: SK-LU-1
Summary of the method: as §1

SW 1573 = system: SW 1573
Summary of the method: as §1

In the case of CC1(C)CCC(c2ccc(Cl)cc2)=C(CN2CCN(c3ccc(C(=O)NS(=O)(=O)c4ccc(N[C@H](CCN5CCOCC5)CSc5ccccc5)c(S(=O)(=O)C(F)(F)F)c4)cc3)CC2)C1 [Navitoclax] + N=C(N)NC(=N)NCCc1ccccc1 [Phenformin] (partner 250 µM), the relative viability (EMC-BAC-2; first compound 0.005 µM) was 0.496, the relative viability (EMC-BAC-2; first compound 0.01581 µM) was 0.604 and the relative viability (EMC-BAC-2; first compound 0.05 µM) was 0.523. It also gave a relative viability (EMC-BAC-2; first compound 0.1581 µM) of 0.498, a relative viability (EMC-BAC-2; first compound 0.5 µM) of 0.489 and a relative viability (EPLC-272H; first compound 0.005 µM) of 0.376. For the same compound, the relative viability (EPLC-272H; first compound 0.05 µM) was 0.324, the relative viability (EPLC-272H; first compound 0.1581 µM) was 0.329 and the relative viability (EPLC-272H; first compound 0.5 µM) was 0.253. It also gave a relative viability (H3255; first compound 0.005 µM) of 0.338, a relative viability (H3255; first compound 0.01581 µM) of 0.399 and a relative viability (H3255; first compound 0.05 µM) of 0.376. The relative viability (H3255; first compound 0.1581 µM) was 0.39, the relative viability (H3255; first compound 0.5 µM) was 0.339 and the relative viability (HOP-62; first compound 0.005 µM) was 0.639. It also gave a relative viability (HOP-62; first compound 0.01581 µM) of 0.673, a relative viability (HOP-62; first compound 0.05 µM) of 0.65 and a relative viability (HOP-62; first compound 0.1581 µM) of 0.669. For the same compound, the relative viability (HOP-62; first compound 0.5 µM) was 0.702, the relative viability (LCLC-97TM1; first compound 0.005 µM) was 0.447 and the relative viability (LCLC-97TM1; first compound 0.01581 µM) was 0.504. The relative viability (LCLC-97TM1; first compound 0.05 µM) was 0.403, the relative viability (LCLC-97TM1; first compound 0.1581 µM) was 0.477 and the relative viability (LCLC-97TM1; first compound 0.5 µM) was 0.507. The relative viability (LXF-289; first compound 0.005 µM) was 0.524, the relative viability (LXF-289; first compound 0.01581 µM) was 0.531 and the relative viability (LXF-289; first compound 0.05 µM) was 0.498. For the same compound, the relative viability (LXF-289; first compound 0.1581 µM) was 0.506, the relative viability (LXF-289; first compound 0.5 µM) was 0.5 and the relative viability (NCI-H1563; first compound 0.005 µM) was 0.685. For the same compound, the relative viability (NCI-H1563; first compound 0.01581 µM) was 0.723, the relative viability (NCI-H1563; first compound 0.05 µM) was 0.611 and the relative viability (NCI-H1563; first compound 0.1581 µM) was 0.682. For the same compound, the relative viability (NCI-H1563; first compound 0.5 µM) was 0.665, the relative viability (NCI-H1650; first compound 0.005 µM) was 0.358 and the relative viability (NCI-H1650; first compound 0.01581 µM) was 0.606. For the same compound, the relative viability (NCI-H1650; first compound 0.05 µM) was 0.404, the relative viability (NCI-H1650; first compound 0.1581 µM) was 0.36 and the relative viability (NCI-H1650; first compound 0.5 µM) was 0.313. It also gave a relative viability (NCI-H1915; first compound 0.005 µM) of 0.382, a relative viability (NCI-H1915; first compound 0.01581 µM) of 0.431 and a relative viability (NCI-H1915; first compound 0.05 µM) of 0.441. The relative viability (NCI-H1915; first compound 0.1581 µM) was 0.42, the relative viability (NCI-H1915; first compound 0.5 µM) was 0.388 and the relative viability (NCI-H1993; first compound 0.005 µM) was 0.545. It also gave a relative viability (NCI-H1993; first compound 0.01581 µM) of 0.498, a relative viability (NCI-H1993; first compound 0.05 µM) of 0.629 and a relative viability (NCI-H1993; first compound 0.1581 µM) of 0.587. The relative viability (NCI-H1993; first compound 0.5 µM) was 0.616, the relative viability (NCI-H2009; first compound 0.005 µM) was 0.495 and the relative viability (NCI-H2009; first compound 0.01581 µM) was 0.519. It also gave a relative viability (NCI-H2009; first compound 0.05 µM) of 0.435, a relative viability (NCI-H2009; first compound 0.1581 µM) of 0.47 and a relative viability (NCI-H2009; first compound 0.5 µM) of 0.484. It also gave a relative viability (NCI-H2023; first compound 0.005 µM) of 0.432, a relative viability (NCI-H2023; first compound 0.01581 µM) of 0.447 and a relative viability (NCI-H2023; first compound 0.05 µM) of 0.382. It also gave a relative viability (NCI-H2023; first compound 0.1581 µM) of 0.425, a relative viability (NCI-H2023; first compound 0.5 µM) of 0.428 and a relative viability (NCI-H2085; first compound 0.005 µM) of 0.732. The relative viability (NCI-H2085; first compound 0.01581 µM) was 0.847, the relative viability (NCI-H2085; first compound 0.05 µM) was 0.593 and the relative viability (NCI-H2085; first compound 0.1581 µM) was 0.746. The relative viability (NCI-H2085; first compound 0.5 µM) was 0.786, the relative viability (NCI-H2126; first compound 0.005 µM) was 0.527 and the relative viability (NCI-H2126; first compound 0.01581 µM) was 0.53. For the same compound, the relative viability (NCI-H2126; first compound 0.05 µM) was 0.45, the relative viability (NCI-H2126; first compound 0.1581 µM) was 0.42 and the relative viability (NCI-H2126; first compound 0.5 µM) was 0.444. For the same compound, the relative viability (NCI-H2342; first compound 0.005 µM) was 0.602, the relative viability (NCI-H2342; first compound 0.01581 µM) was 0.627 and the relative viability (NCI-H2342; first compound 0.05 µM) was 0.486. The relative viability (NCI-H2342; first compound 0.1581 µM) was 0.599, the relative viability (NCI-H2342; first compound 0.5 µM) was 0.624 and the relative viability (NCI-H2347; first compound 0.005 µM) was 0.452. The relative viability (NCI-H2347; first compound 0.01581 µM) was 0.567, the relative viability (NCI-H2347; first compound 0.1581 µM) was 0.321 and the relative viability (NCI-H2347; first compound 0.5 µM) was 0.482. For the same compound, the relative viability (NCI-H322M; first compound 0.005 µM) was 0.805, the relative viability (NCI-H322M; first compound 0.01581 µM) was 0.923 and the relative viability (NCI-H322M; first compound 0.05 µM) was 0.776. It also gave a relative viability (NCI-H322M; first compound 0.1581 µM) of 0.848, a relative viability (NCI-H322M; first compound 0.5 µM) of 0.954 and a relative viability (NCI-H647; first compound 0.005 µM) of 0.536. The relative viability (NCI-H647; first compound 0.01581 µM) was 0.488, the relative viability (NCI-H647; first compound 0.05 µM) was 0.651 and the relative viability (NCI-H647; first compound 0.1581 µM) was 0.323. It also gave a relative viability (NCI-H647; first compound 0.5 µM) of 0.445, a relative viability (NCI-H661; first compound 0.005 µM) of 0.253 and a relative viability (NCI-H661; first compound 0.01581 µM) of 0.298. It also gave a relative viability (NCI-H661; first compound 0.05 µM) of 0.262, a relative viability (NCI-H661; first compound 0.1581 µM) of 0.257 and a relative viability (NCI-H661; first compound 0.5 µM) of 0.258. It also gave a relative viability (NCI-H727; first compound 0.01581 µM) of 0.804, a relative viability (NCI-H727; first compound 0.1581 µM) of 0.479 and a relative viability (NCI-H727; first compound 0.5 µM) of 0.394. The relative viability (PC-14; first compound 0.005 µM) was 0.611, the relative viability (PC-14; first compound 0.01581 µM) was 0.598 and the relative viability (PC-14; first compound 0.05 µM) was 0.57. For the same compound, the relative viability (PC-14; first compound 0.1581 µM) was 0.541, the relative viability (PC-14; first compound 0.5 µM) was 0.616 and the relative viability (SK-LU-1; first compound 0.005 µM) was 0.552. It also gave a relative viability (SK-LU-1; first compound 0.01581 µM) of 0.608, a relative viability (SK-LU-1; first compound 0.05 µM) of 0.501 and a relative viability (SK-LU-1; first compound 0.1581 µM) of 0.463. For the same compound, the relative viability (SK-LU-1; first compound 0.5 µM) was 0.513, the relative viability (SW 1573; first compound 0.005 µM) was 0.437 and the relative viability (SW 1573; first compound 0.01581 µM) was 0.503. For the same compound, the relative viability (SW 1573; first compound 0.05 µM) was 0.358, the relative viability (SW 1573; first compound 0.1581 µM) was 0.414 and the relative viability (SW 1573; first compound 0.5 µM) was 0.406.
